Data: ChEMBL document CHEMBL3885861, “Open TG-GATES”

Species on record: Rattus norvegicus
Experiment: Open TG-GATES - Regimen: Single
Format: toxicity, organism-based, Sprague-Dawley
Set-up: regimen Single, gender Male, age 6 weeks
Details: in vivo, po, 100 mg/kg, route gavage, dose level High; for APTT / Bas / Eos / Fbg / Hb / Ht / Lym / MCH / MCHC / MCV / Mono / Neu / PT / Plat / RBC / Ret / WBC: tissue Blood; for KIDNEY_L / KIDNEY_R / KIDNEY_TOTAL: tissue Kidney; for LIVER: tissue Liver; for A/G / ALP / ALT / AST / BUN / CRE / Ca / Cl / DBIL / GLC / IP / K / LDH / Na / PL / RALB / TBIL / TC / TG / TP / gamma-GTP: tissue Plasma

## CCCc1cc(=O)[nH]c(=S)[nH]1 [PROPYLTHIOURACIL]
3 h
  TERMINAL_BW: 180.9 g
  APTT: 15.7 s
  Bas: 0%
  Eos: 0.6%
  Fbg: 210 mg/dL
  Hb: 13.3 g/dL
  Ht: 39.7%
  Lym: 82.6%
  MCH: 21.7 pg
  MCHC: 33.3%
  MCV: 65.1 fL
  Mono: 5.8%
  Neu: 10.8%
  PT: 12.9 s
  Plat: 99.3 x10_4/uL
  RBC: 611.2 x10_4/ul
  Ret: 9.7%
  WBC: 96.7 x10_2/uL
  KIDNEY_L: 0.8 g
  KIDNEY_R: 0.8 g
  KIDNEY_TOTAL: 1.6 g
  LIVER: 8.3 g
  A/G: 1.9
  ALP: 858.8 IU/L
  ALT: 38 IU/L
  AST: 70.2 IU/L
  BUN: 12.6 mg/dL
  CRE: 0.4 mg/dL
  Ca: 10.9 mg/dL
  Cl: 105 meq/L
  DBIL: 0.03 mg/dL
  GLC: 189.4 mg/dL
  IP: 10.9 mg/dL
  K: 4.2 meq/L
  LDH: 141 IU/L
  Na: 138.4 meq/L
  PL: 138 mg/dL
  RALB: 3.7 g/dL
  TBIL: 0.3 mg/dL
  TC: 83.4 mg/dL
  TG: 27 mg/dL
  TP: 5.6 g/dL
  gamma-GTP: 2 IU/L
6 h
  TERMINAL_BW: 176.2 g
  APTT: 16.5 s
  Bas: 0%
  Eos: 0.6%
  Fbg: 213.2 mg/dL
  Hb: 13.2 g/dL
  Ht: 39.9%
  Lym: 76%
  MCH: 21.6 pg
  MCHC: 33.2%
  MCV: 65 fL
  Mono: 5.2%
  Neu: 18.2%
  PT: 12.8 s
  Plat: 106.5 x10_4/uL
  RBC: 612.8 x10_4/ul
  Ret: 9.9%
  WBC: 77.1 x10_2/uL
  KIDNEY_L: 0.8 g
  KIDNEY_R: 0.8 g
  KIDNEY_TOTAL: 1.6 g
  LIVER: 7.5 g
  A/G: 2.1
  ALP: 762.4 IU/L
  ALT: 27.8 IU/L
  AST: 64 IU/L
  BUN: 11.4 mg/dL
  CRE: 0.4 mg/dL
  Ca: 11 mg/dL
  Cl: 105.4 meq/L
  DBIL: 0.048 mg/dL
  GLC: 186.8 mg/dL
  IP: 10.5 mg/dL
  K: 4.6 meq/L
  LDH: 139.2 IU/L
  Na: 139 meq/L
  PL: 136.6 mg/dL
  RALB: 3.8 g/dL
  TBIL: 0.4 mg/dL
  TC: 78.8 mg/dL
  TG: 23 mg/dL
  TP: 5.6 g/dL
  gamma-GTP: 2 IU/L
9 h
  TERMINAL_BW: 173.6 g
  APTT: 15.9 s
  Bas: 0%
  Eos: 1.2%
  Fbg: 207.4 mg/dL
  Hb: 12.9 g/dL
  Ht: 38.8%
  Lym: 73.6%
  MCH: 21.7 pg
  MCHC: 33.3%
  MCV: 65.1 fL
  Mono: 8.2%
  Neu: 17.2%
  PT: 12.8 s
  Plat: 110.6 x10_4/uL
  RBC: 597.2 x10_4/ul
  Ret: 9.9%
  WBC: 65.2 x10_2/uL
  KIDNEY_L: 0.8 g
  KIDNEY_R: 0.8 g
  KIDNEY_TOTAL: 1.6 g
  LIVER: 7 g
  A/G: 1.9
  ALP: 879.2 IU/L
  ALT: 31.2 IU/L
  AST: 68 IU/L
  BUN: 13.6 mg/dL
  CRE: 0.4 mg/dL
  Ca: 10.8 mg/dL
  Cl: 108 meq/L
  DBIL: 0.008 mg/dL
  GLC: 186.6 mg/dL
  IP: 10.4 mg/dL
  K: 4.8 meq/L
  LDH: 176.8 IU/L
  Na: 139.4 meq/L
  PL: 141.4 mg/dL
  RALB: 3.6 g/dL
  TBIL: 0.4 mg/dL
  TC: 83.2 mg/dL
  TG: 28 mg/dL
  TP: 5.5 g/dL
  gamma-GTP: 1.4 IU/L
24 h
  TERMINAL_BW: 186.8 g
  APTT: 15.6 s
  Bas: 0%
  Eos: 1%
  Fbg: 217 mg/dL
  Hb: 13.1 g/dL
  Ht: 39.5%
  Lym: 77.6%
  MCH: 21.7 pg
  MCHC: 33%
  MCV: 65.7 fL
  Mono: 7.2%
  Neu: 14.6%
  PT: 12.2 s
  Plat: 108.5 x10_4/uL
  RBC: 601.8 x10_4/ul
  Ret: 9.3%
  WBC: 115.2 x10_2/uL
  KIDNEY_L: 0.9 g
  KIDNEY_R: 0.9 g
  KIDNEY_TOTAL: 1.7 g
  LIVER: 9.9 g
  A/G: 1.8
  ALP: 1169.8 IU/L
  ALT: 42.6 IU/L
  AST: 69.2 IU/L
  BUN: 17.4 mg/dL
  CRE: 0.5 mg/dL
  Ca: 11.2 mg/dL
  Cl: 106.8 meq/L
  DBIL: 0.014 mg/dL
  GLC: 175.2 mg/dL
  IP: 8.1 mg/dL
  K: 5 meq/L
  LDH: 192.4 IU/L
  Na: 139.8 meq/L
  PL: 170.6 mg/dL
  RALB: 3.7 g/dL
  TBIL: 0.3 mg/dL
  TC: 97.8 mg/dL
  TG: 107 mg/dL
  TP: 5.7 g/dL
  gamma-GTP: 1.2 IU/L
